Results reported in US20250368648A1, “MULTI-CYCLIC IRAK AND FLT3 INHIBITING COMPOUNDS AND USES THEREOF” (CHILDREN'S HOSPITAL MEDICAL CENTER, priority 2022, published 2025).

Experiments:
FLT3 = molecular target: T1, FLT3 (Homo sapiens, UniProt P36888); assay: RBC HotSpot Kinase Assay, FLT3; type: biochemical; design: purchased RBC (Reaction Biology) HotSpot assay; conditions: HotSpot functional assay, isolated kinase enzyme, 33P-ATP
T1 sequence (P36888 27-993): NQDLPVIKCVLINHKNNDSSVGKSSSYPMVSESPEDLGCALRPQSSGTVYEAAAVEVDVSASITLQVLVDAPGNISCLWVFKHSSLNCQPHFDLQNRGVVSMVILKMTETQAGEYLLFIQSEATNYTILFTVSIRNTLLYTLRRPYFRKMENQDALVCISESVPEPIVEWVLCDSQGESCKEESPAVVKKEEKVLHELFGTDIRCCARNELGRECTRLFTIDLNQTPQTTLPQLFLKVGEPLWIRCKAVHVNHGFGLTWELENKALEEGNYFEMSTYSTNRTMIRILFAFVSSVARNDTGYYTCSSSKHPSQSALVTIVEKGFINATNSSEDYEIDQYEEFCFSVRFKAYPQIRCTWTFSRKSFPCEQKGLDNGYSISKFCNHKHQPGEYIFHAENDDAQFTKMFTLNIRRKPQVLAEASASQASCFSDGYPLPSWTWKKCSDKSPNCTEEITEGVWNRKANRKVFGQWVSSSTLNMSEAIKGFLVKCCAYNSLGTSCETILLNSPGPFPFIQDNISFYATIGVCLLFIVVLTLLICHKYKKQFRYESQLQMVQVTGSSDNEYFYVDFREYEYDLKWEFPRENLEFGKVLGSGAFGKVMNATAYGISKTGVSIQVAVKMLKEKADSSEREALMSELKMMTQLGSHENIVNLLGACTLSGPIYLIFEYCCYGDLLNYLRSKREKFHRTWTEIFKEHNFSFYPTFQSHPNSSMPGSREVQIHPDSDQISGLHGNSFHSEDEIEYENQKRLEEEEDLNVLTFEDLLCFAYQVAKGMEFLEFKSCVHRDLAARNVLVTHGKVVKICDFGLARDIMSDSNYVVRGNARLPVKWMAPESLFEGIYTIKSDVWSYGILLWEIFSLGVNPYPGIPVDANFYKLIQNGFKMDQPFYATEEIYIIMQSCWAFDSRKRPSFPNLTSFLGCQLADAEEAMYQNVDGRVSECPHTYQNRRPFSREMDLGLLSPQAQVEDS
Outline: (§1)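 Isolated kinases, possibly truncated or lacking regulatory receptor regions, were preincubated with compound for 20 min at room temp in 20 mM Hepes pH 7.5, 10 mM MgCl2, 1 mM EGTA, 2 mM DTT, 1% DMSO. Reactions were started with ^33P-ATP and run 2 h at room temperature; activity was read by P81 filter binding.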

IRAK1 = molecular target: T2, IRAK1 (Homo sapiens, UniProt P51617); assay: RBC HotSpot Kinase Assay, IRAK1; type: biochemical; conditions: HotSpot functional assay, isolated kinase enzyme, 33P-ATP
T2 construct: purchased RBC (Reaction Biology) HotSpot assay
T2 sequence (P51617 whole entry): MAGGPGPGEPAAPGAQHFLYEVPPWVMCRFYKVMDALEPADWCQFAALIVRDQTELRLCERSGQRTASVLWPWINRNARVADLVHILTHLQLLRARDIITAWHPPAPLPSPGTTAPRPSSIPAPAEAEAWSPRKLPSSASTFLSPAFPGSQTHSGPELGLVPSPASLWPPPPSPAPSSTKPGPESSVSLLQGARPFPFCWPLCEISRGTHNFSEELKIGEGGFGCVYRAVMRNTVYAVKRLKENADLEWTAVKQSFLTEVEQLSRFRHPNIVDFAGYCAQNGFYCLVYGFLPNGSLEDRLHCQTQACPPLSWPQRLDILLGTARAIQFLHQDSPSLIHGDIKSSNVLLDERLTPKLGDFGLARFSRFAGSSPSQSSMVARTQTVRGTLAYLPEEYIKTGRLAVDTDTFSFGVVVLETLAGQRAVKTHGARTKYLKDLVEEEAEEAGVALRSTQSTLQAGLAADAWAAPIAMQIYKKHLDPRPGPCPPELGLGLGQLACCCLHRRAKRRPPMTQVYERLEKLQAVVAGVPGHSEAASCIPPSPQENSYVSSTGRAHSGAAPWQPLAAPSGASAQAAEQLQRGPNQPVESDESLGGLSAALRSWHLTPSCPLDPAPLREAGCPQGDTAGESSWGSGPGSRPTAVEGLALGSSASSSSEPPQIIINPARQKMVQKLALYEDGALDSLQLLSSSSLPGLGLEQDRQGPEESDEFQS
Outline: as §1

| SMILES | IC50 (FLT3) | IC50 (IRAK1) |
| --- | --- | --- |
| COc1cc2ncc(-c3nc(N[C@H]4CNCC[C@@H]4F)c(F)cc3F)n2nc1C(C)(O)C(F)(F)F (single isomer, unassigned) [Compound 77a] | < 0.5 nM | 362 nM |
| COc1cc2ncc(-c3nc(N[C@H]4CNC[C@@H]4F)c(F)cc3F)n2nc1C(C)(O)C(F)(F)F (single isomer, unassigned) [Compound 80a] | < 0.5 nM | 1550 nM |
| COc1cc2ncc(-c3nc(N[C@@H]4CCCNC4)c(F)cc3F)n2nc1C(C)(O)C(F)(F)F (single isomer, unassigned) [Compound 81a] | < 0.5 nM | 589 nM |
| COc1cc2ncc(-c3nc(N[C@H]4CNCC[C@@H]4F)c(F)cc3F)n2nc1C1CC2(CCC2)C1 [Compound 10a, 3,5-difluoro-N-((3S,4S)-4-fluoropiperidin-3-yl)-6-(7-methoxy-6-(spiro[3.3]heptan-2-yl)imidazo[1,2-b]pyridazin-3-yl)pyridin-2-amine] | < 0.5 nM | 72 nM |
| COc1cc2ncc(-c3nc(N[C@H]4CNC[C@@H]4F)c(F)cc3F)n2nc1C1CC2(CCC2)C1 [Compound 12a, 3,5-difluoro-N-((3S,4S)-4-fluoropyrrolidin-3-yl)-6-(7-methoxy-6-(spiro[3.3]heptan-2-yl)imidazo[1,2-b]pyridazin-3-yl)pyridin-2-amine] | < 0.5 nM | 88 nM |
| COc1cc2ncc(-c3nc(N[C@H]4CNCC[C@@H]4F)c(F)cc3F)n2nc1C1CCC1 [Compound 15a, 6-(6-cyclobutyl-7-methoxyimidazo[1,2-b]pyridazin-3-yl)-3,5-difluoro-N-((3S,4S)-4-fluoropiperidin-3-yl)pyridin-2-amine] | < 0.5 nM | 12 nM |
| COc1cc2ncc(-c3nc(N[C@H]4CNCC[C@@H]4F)c(F)cc3F)n2nc1C12CC(C1)C2 [Compound 67a, 6-(6-(bicyclo[1.1.1]pentan-1-yl)-7-methoxyimidazo[1,2-b]pyridazin-3-yl)-3,5-difluoro-N-((3S,4S)-4-fluoropiperidin-3-yl)pyridin-2-amine] | < 0.5 nM | 9 nM |
